These results are taken from patent US20230331803A1, “CO-AGONISTS OF THE GLP-1 AND AMYLIN RECEPTORS” (priority 2020, published 2023).

For one data set, the system named is Sprague Dawley (SD) rats. The data set can be described thus: Acute food intake in ad libitum fed rats after a single subcutaneous administration.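 As to all read-outs here: food intake monitored in the HM2 system, three rats per cage kept on a reversed light cycle, with food and water freely available after the subcutaneous dose.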 In kind it is in vivo, rat. The following applies: for Food intake relative to vehicle (%) 0-24 hr, 10 nmol/kg / Food intake relative to vehicle (%) 24-48 hr, 10 nmol/kg: rat, single administration.
In another data set the target is T1, human GLP-1 receptor (Homo sapiens, UniProt P43220).
T1 construct: expressed in transfected cells; host or cells: BHK (Baby Hamster Kidney) cells, clone BHK 467-12A KZ-10, stably transfected, with CRE-luciferase reporter
T1 sequence (P43220 24-463): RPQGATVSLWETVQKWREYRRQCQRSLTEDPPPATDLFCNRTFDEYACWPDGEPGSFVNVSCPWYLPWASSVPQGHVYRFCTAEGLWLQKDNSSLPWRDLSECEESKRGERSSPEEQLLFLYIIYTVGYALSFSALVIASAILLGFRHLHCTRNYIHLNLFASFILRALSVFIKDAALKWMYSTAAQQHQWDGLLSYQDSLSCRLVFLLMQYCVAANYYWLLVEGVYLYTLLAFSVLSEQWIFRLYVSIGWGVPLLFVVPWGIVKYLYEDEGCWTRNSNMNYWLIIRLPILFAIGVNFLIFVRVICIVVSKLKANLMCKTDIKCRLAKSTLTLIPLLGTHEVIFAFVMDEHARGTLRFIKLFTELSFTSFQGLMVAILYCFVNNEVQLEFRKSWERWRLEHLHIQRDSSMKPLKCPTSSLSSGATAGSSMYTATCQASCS
The data set can be described thus: Human GLP-1 receptor in vitro potency assay (CRE-luciferase reporter, BHK cells). In kind it is cell-based.

The nature of data set [1]: Pharmacokinetic studies in Beagle dogs after oral administration of SNAC-based tablets. In kind it is in vivo. Conditions: for T½ / Tmax / half-life: male, Beagle. In outline: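 Fasted male Beagle dogs received immediate-release oral tablets containing 3–4 mg test substance with 100–300 mg SNAC, optionally after ~3 nmol/kg s.c. SEQ ID NO: 237 10 min before. EDTA plasma sampled up to 240 h; LCMS concentrations analysed non-compartmentally.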

The target in data set [2] is T2, human amylin receptor (hAmyR3) (Homo sapiens, UniProt O60896+P30988).
T2 construct: host or cells: BHK cells (Hollex-1 line: human calcitonin receptor (a) + CRE-Luc), further transfected with human RAMP3
The data set can be described thus: Human amylin receptor in vitro potency assay (CRE-luciferase reporter, BHK cells).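 Also: BHK cells expressing human calcitonin receptor plus RAMP3 (amylin-3 receptor) with a CRE-luciferase reporter, agonist activity read as luminescence from cAMP-driven transcription, 7-point serial dilutions.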 The data set is classed as cell-based.

The target in data set [3] is T3, human amylin receptor (hAmyR3) (Homo sapiens, UniProt O60896+P30988).
T3 construct: host or cells: BHK cells (Hollex-1 line: human calcitonin receptor (a) + CRE-Luc), further transfected with human RAMP3
T3 sequence (O60896 whole entry, looked up): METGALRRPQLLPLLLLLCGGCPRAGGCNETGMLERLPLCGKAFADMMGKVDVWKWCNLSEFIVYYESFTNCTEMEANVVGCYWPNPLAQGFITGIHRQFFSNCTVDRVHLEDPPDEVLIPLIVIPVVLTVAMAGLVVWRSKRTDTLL
T3 sequence (P30988 whole entry, looked up): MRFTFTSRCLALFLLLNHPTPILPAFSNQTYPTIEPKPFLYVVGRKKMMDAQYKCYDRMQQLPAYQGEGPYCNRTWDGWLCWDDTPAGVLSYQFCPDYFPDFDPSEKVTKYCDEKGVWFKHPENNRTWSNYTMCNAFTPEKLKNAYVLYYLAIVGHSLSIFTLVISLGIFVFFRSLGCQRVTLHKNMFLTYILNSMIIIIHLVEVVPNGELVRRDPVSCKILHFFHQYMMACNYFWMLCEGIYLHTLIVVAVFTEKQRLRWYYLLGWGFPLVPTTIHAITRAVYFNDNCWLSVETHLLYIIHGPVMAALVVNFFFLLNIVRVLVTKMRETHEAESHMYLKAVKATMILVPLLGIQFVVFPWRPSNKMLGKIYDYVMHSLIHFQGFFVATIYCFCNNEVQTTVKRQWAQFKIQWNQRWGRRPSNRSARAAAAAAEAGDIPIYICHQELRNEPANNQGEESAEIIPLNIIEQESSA
The description is as above. In kind it is cell-based. The following applies: Tables 4a-4c.

Where [4] appears, read: Table 4a, BHK cells expressing human GLP-1R, CRE-Luc, 3 hours, read-out: Human GLP-1R potency [EC50 (pM)].
[5] abbreviates: Table 4a, BHK hAmyR3/CRE-Luc cells, 3 hours, read-out: Human AmyR3 potency [EC50 (pM)].
The mark [6] stands for this setting: dogs, oral administration (tablet).

Read-outs that look alike come from different tables or passages of the source. Starred links: 1 amine or outer side, 2 acyl side, 3 side chain; linkers in the order of their positions; H or OH if unused. Non-standard residues stand in square brackets, D forms with d. Groups on a side chain read outwards from the residue. *: point of attachment. Decanoyl(10-(4-HOOC-PhO)) = O=C(O)c1ccc(OCCCCCCCCCC(=O)*)cc1; C20 diacid = O=C(O)CCCCCCCCCCCCCCCCCCC(=O)*; C18 diacid = O=C(O)CCCCCCCCCCCCCCCCC(=O)*; C16 diacid = O=C(O)CCCCCCCCCCCCCCC(=O)*; γGlu = O=C(O)[C@H](CCC(=O)[*:2])N[*:1]; εLys = N[C@@H](CCCCN[*:1])C(=O)[*:2]; Trx = NC[C@H]1CC[C@H](C(=O)O)CC1; AEEA = NCCOCCOCC(=O)O; Aib = CC(C)(N)C(=O)O

Take “H-H[Aib]EGTFTSDVSK([AEEA-AEEA-γGlu-C16 diacid])YLEEQAARK([AEEA-AEEA-γGlu-C16 diacid])FIAWLVRGRGGGGGEASELSTAALGRLSAELHELATLPRTETGSGSP-NH2 [Compound 0516]”: in the data set with Sprague Dawley (SD) rats (Table 6a), the “Food intake relative to vehicle (%) 0-24 hr, 10 nmol/kg” value came to 87% and the “Food intake relative to vehicle (%) 24-48 hr, 10 nmol/kg” value is listed as 82%. Also, the EC50 on human GLP-1 receptor (setting [4]) turned out to be 3.3 pM. The “T½” value in data set [1] (dog, in vivo, po) is 103 h. For the same molecule, in data set [1] (dog, in vivo, po, Tmax (hr)), the Tmax amounted to 2 h. The half-life in data set [1] (dog, in vivo, po, T½ (hr)) is 99 h. Also, the half-maximal effective concentration (EC50) in data set [2] (setting [5]) is 8.9 pM.

In the case of “H-H[Aib]EGTFTSDVSSYLEEQAARK([εLys-AEEA-AEEA-γGlu-Trx-C20 diacid])FIEWLVRGRGEASELSTAALGRLSAELHELATLPRTETGSGSP-NH2 [Compound 0439]”, in the data set with Sprague Dawley (SD) rats (Table 6a), the “Food intake relative to vehicle (%) 0-24 hr, 10 nmol/kg” value is reported as 43% and the “Food intake relative to vehicle (%) 24-48 hr, 10 nmol/kg” value was determined as 41%. Besides, the concentration for a half-maximal effect (EC50) at human GLP-1 receptor (setting [4]) amounted to 8.3 pM. In data set [1] (dog, in vivo, po), the “AUC/D” value turned out to be 5.36 kg·h/L and the “Cmax/D” value was found to be 0.21 kg/L. Besides, the Tmax in data set [1] (dog, in vivo, po, Tmax (hr)) was found to be 2 h. In data set [1] (dog, in vivo, po, T½ (hr)), this molecule gave a half-life of 24 h. Moreover, the EC50 in data set [2] (setting [5]) amounted to 10.7 pM.

Consider “H-HWEGTFTSDVSSYLEEQAARK([AEEA-AEEA-γGlu-Decanoyl(10-(4-HOOC-PhO))])FIEWLVRGRGEGGGGGASELSTAALGRLSAELHELK([AEEA-AEEA-γGlu-Decanoyl(10-(4-HOOC-PhO))])TLPRTETGSGSP-NH2 [Compound 0232]”, for which, in the data set on Sprague Dawley (SD) rats (Table 6a), the “Food intake relative to vehicle (%) 0-24 hr, 10 nmol/kg” value is listed as 61% and the “Food intake relative to vehicle (%) 24-48 hr, 10 nmol/kg” value is 95%. This molecule registered a concentration giving a half-maximal response (EC50) at human GLP-1 receptor of 6.4 pM. Also, in data set [1] (setting [6]), the “AUC/D” value is 2.00 kg·h/L and the “Cmax/D” value came to 0.51 kg/L. The time of peak concentration (Tmax) in data set [1] (dog, in vivo, dogs, oral administration (tablet), read-out: Tmax) was found to be 0.8 h. The half-life in data set [1] (dog, in vivo, dogs, oral administration (tablet), read-out: T½ (converted)) was 4 h. Moreover, a half-maximal response in data set [2] (EC50) required 74.2 pM.

Take “H-H[Aib]EGTFTSDVSSYLEEQAAREFIAWLVRGRK([AEEA-AEEA-γGlu-Trx-C20 diacid])GGGGEASELSTAALGRLSAELHELATLPRTETGSGSP-NH2 [Compound 0120]”: the “Food intake relative to vehicle (%) 0-24 hr, 10 nmol/kg” value with Sprague Dawley (SD) rats (Table 6a) and in the data set on Sprague Dawley (SD) rats (Table 6b) was 53% each time. The “Food intake relative to vehicle (%) 24-48 hr, 10 nmol/kg” value in the data set with Sprague Dawley (SD) rats (Table 6a) and in the data set with Sprague Dawley (SD) rats (Table 6b) was 55% throughout. In addition, the “Inhibition of food intake, in words” value in the data set on Sprague Dawley (SD) rats (rats, 10 nmol/kg) is listed as “significant inhibition of food intake within the first 48 hours”. Further, the EC50 was found to be 9.1 pM on human GLP-1 receptor (setting [4]) and 10.6 pM in data set [2] (setting [5]). Also, the “Ability to agonise the GLP-1 receptor, in words” value on human GLP-1 receptor (Tables 4a-4c) is on record as “fully potent on both receptors”. In addition, the “T½” value in data set [1] (dog, in vivo, po) came out at 22 h. This molecule also had a half-life in data set [1] (dog, in vivo, po, T½ (hr)) of 24 h. The “Ability to agonise the amylin receptor, in words” value in data set [2] (Tables 4a-4c) is “fully potent on both receptors”.

“H-H[Aib]EGTFTSDVSSYLEEQAAREFIAWLVRGRK([εLys-AEEA-AEEA-γGlu-C20 diacid])GGGGEASELSTAALGRLSAELHELATLPRTETGSGSP-NH2 [Compound 0552]”: in the data set with Sprague Dawley (SD) rats (Table 6a), the “Food intake relative to vehicle (%) 0-24 hr, 10 nmol/kg” value was 56% and the “Food intake relative to vehicle (%) 24-48 hr, 10 nmol/kg” value worked out at 55%. The concentration giving a half-maximal response (EC50) at human GLP-1 receptor (setting [4]) was 4.7 pM. For the same molecule, in data set [1] (dog, in vivo, po), the “AUC/D” value is 8.58 kg·h/L and the “Cmax/D” value was determined as 0.22 kg/L. Also, the time of peak concentration (Tmax) in data set [1] (dog, in vivo, po, Tmax (hr)) worked out at 1 h. This molecule also had a half-life in data set [1] (dog, in vivo, po, T½ (hr)) of 52 h. For the same molecule, the EC50 in data set [2] (setting [5]) is 6.9 pM.

B1: H-Aib-EGTFTSDVSSYLEGQAA-K([2-[2-[2-[[2-[2-[2-[[(4S)-4-Carboxy-4-(17-Carboxyheptadecanoylamino)Butanoyl]Amino]Ethoxy]Ethoxy]Acetyl]Amino]Ethoxy]Ethoxy]Acetyl])-EFIAWLVRGRGGQEPGQEP-K([2-[2-[2-[[2-[2-[2- … (peptide)
peptide: H[Aib]EGTFTSDVSSYLEGQAAK([AEEA-AEEA-γGlu-C18 diacid])EFIAWLVRGRGGQEPGQEPK([AEEA-AEEA-γGlu-C18 diacid])CNTATCATQRLAEFLRHSSNNFGPILPPTNVGSNTP-NH2
modifications: ends and bridges not checked
Take B1: in data set [3], the “Ability to agonise the amylin receptor, in words” value is reported as “do not activate the amylin receptor”.
